Results taken from PubChem BioAssay (NCI).
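Results reflect a 48-hour exposure of cells in 96-well plates to compound at five concentrations. TGI: concentration producing complete growth inhibition.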

Experiments:
Experiment in all cases: growth of human tumour cells (NCI), 48 h
ACHN renal = tested on: ACHN renal
HS 578T breast = tested on: HS 578T breast
K-562 leukemia = tested on: K-562 leukemia
NCI-H23 lung = tested on: NCI-H23 lung
OVCAR-4 ovarian = tested on: OVCAR-4 ovarian
PC-3 prostate = tested on: PC-3 prostate
SF-295 CNS = tested on: SF-295 CNS
SW-620 colon = tested on: SW-620 colon
UACC-257 melanoma = tested on: UACC-257 melanoma
HL-60(TB) leukemia = tested on: HL-60(TB) leukemia

| Structure (SMILES) | TGI (ACHN renal) | TGI (HS 578T breast) | TGI (K-562 leukemia) | TGI (NCI-H23 lung) | TGI (OVCAR-4 ovarian) | TGI (PC-3 prostate) | TGI (SF-295 CNS) | TGI (SW-620 colon) | TGI (UACC-257 melanoma) | TGI (HL-60(TB) leukemia) |
| --- | --- | --- | --- | --- | --- | --- | --- | --- | --- | --- |
| CC(Nc1cccc(Cl)c1)c1ccncc1 (stereo not drawn) | > 100 µM | > 100 µM | > 100 µM | > 100 µM | > 100 µM | > 100 µM | > 100 µM | > 100 µM | > 100 µM |  |
| C[N+](C)(N)Cc1nc(-c2ccc(Cl)cc2)no1 | > 100 µM | > 100 µM | > 100 µM | > 100 µM | > 100 µM | > 100 µM | > 100 µM | > 100 µM | > 100 µM | > 100 µM |
| COc1ccc(OC)c([N+](=O)[O-])c1-c1nc2sc(Cl)cn2c1/C=N/N=C(N)N | 86.3 µM | 51.7 µM | 56.3 µM | 60.7 µM | 30.1 µM | 41.8 µM | 50.2 µM | 55 µM | 37.5 µM | 29 µM |
| O=C(Nc1ccc(Cl)cc1)c1cc(S(=O)(=O)Nc2nc3ncccc3[nH]2)c(SSc2cc(Cl)c(C(=O)Nc3ccc(Cl)cc3)cc2S(=O)(=O)Nc2nc3ncccc3[nH]2)cc1Cl | > 100 µM | > 100 µM | > 100 µM | > 100 µM | > 100 µM | > 100 µM | > 100 µM | > 100 µM | > 100 µM | > 100 µM |
| N#C/C=C(/NC(=O)Nc1ccccc1)N1CCCC1 | > 57.3 µM | > 100 µM | > 100 µM | > 64.7 µM | > 100 µM | > 54.5 µM | > 43.8 µM | > 63.7 µM | > 100 µM | > 100 µM |
| Cc1cc2c3c(c1)S(=O)(=O)c1cc(Cl)ccc1N3CCC2 | > 100 µM | > 100 µM | > 100 µM |  | > 100 µM | > 100 µM | > 100 µM | > 100 µM | > 100 µM | > 100 µM |
| O=[N+]([O-])C(/C(Cl)=C(/Cl)N1CCOCC1)=C1\Nc2ccccc2O1 | > 100 µM | > 100 µM | > 100 µM | > 100 µM | > 100 µM | > 100 µM | > 100 µM | > 100 µM | > 100 µM |  |
| CCN(CC)C1=Nc2ccccc2-n2ccnc2C1 | > 100 µM | > 100 µM | > 100 µM | > 100 µM | > 100 µM | > 100 µM | > 100 µM | > 100 µM | > 100 µM | > 100 µM |
| CC(=O)Oc1ccc2c(c1)O/C(=C\c1ccc(N(C)C)cc1)C2=O | > 100 µM | 60.8 µM | > 100 µM | > 100 µM | > 100 µM | > 100 µM |  | > 100 µM | > 100 µM | > 100 µM |
| CCCCCCc1cc2cc(C(=O)Nc3nc(C45CC6CC(CC(C6)C4)C5)cs3)c(=O)oc2cc1O | 20.8 µM | 46.9 µM | 11 µM | 33.2 µM | 42.1 µM | 34.3 µM | 23.6 µM | > 100 µM | 68 µM | 19.8 µM |
| Cc1cccc(-c2cc(=O)c3cccnc3[nH]2)c1 | > 100 µM | > 100 µM | > 100 µM | > 100 µM | > 100 µM | > 100 µM | > 100 µM | > 100 µM |  | 0.654 µM |
| CCOC(=O)c1ccc(-c2onc(C)c2Br)[nH]1 | > 100 µM | > 100 µM | > 100 µM | > 100 µM | > 100 µM | > 100 µM | > 100 µM | > 100 µM | > 100 µM |  |
| CSC(=Nc1ccccc1)c1c(C)[nH]n(-c2ccccc2)c1=O |  | > 100 µM | > 100 µM | > 100 µM | > 100 µM | > 100 µM |  | > 100 µM | > 100 µM | > 100 µM |
| COc1cc(OC)c(-n2[nH]c(=O)n(C)c2=O)c(OC)c1 |  | > 100 µM | > 100 µM | > 100 µM | > 100 µM | > 100 µM |  | > 100 µM | > 100 µM | > 100 µM |
| Fc1ccc(/C=C2\COCC3=C2NC(=S)NC3c2ccc(F)cc2)cc1 (stereo not drawn) | > 100 µM | 52.7 µM | 44.6 µM | 50.7 µM | 38.5 µM | 33 µM | 33.3 µM | 36 µM | 34.2 µM | 35.4 µM |
| CCCSc1ccc2[nH]c(N3C(=O)/C(=C/c4ccc(O)c(OC)c4)N=C3c3ccccc3)cc2c1 | > 100 µM | 14.3 µM | > 100 µM | 61.5 µM |  | > 100 µM |  | > 100 µM | 51.8 µM | 11.6 µM |
